Drawing on ChEMBL document CHEMBL5291721, “A preclinical secondary pharmacology resource illuminates target-adverse drug reaction associations of marketed drugs” (Nat Commun, 2023), this text covers AC50 for 13 molecules.

For one test, the target named is T1, Adenosine receptor A3 (Homo sapiens, UniProt P0DMS8).
T1 sequence (P0DMS8 whole entry): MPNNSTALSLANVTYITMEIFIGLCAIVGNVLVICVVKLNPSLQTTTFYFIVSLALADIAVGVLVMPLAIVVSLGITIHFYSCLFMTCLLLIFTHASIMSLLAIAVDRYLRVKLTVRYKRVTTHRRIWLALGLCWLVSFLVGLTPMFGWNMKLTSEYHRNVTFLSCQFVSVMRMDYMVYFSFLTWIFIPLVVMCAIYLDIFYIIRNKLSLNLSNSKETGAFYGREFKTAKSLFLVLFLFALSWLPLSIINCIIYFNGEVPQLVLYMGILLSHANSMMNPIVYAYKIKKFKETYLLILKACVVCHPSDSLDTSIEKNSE

Test [1] concerns the target T2, Alpha-2A adrenergic receptor (Homo sapiens, UniProt P08913).
T2 sequence (P08913 whole entry): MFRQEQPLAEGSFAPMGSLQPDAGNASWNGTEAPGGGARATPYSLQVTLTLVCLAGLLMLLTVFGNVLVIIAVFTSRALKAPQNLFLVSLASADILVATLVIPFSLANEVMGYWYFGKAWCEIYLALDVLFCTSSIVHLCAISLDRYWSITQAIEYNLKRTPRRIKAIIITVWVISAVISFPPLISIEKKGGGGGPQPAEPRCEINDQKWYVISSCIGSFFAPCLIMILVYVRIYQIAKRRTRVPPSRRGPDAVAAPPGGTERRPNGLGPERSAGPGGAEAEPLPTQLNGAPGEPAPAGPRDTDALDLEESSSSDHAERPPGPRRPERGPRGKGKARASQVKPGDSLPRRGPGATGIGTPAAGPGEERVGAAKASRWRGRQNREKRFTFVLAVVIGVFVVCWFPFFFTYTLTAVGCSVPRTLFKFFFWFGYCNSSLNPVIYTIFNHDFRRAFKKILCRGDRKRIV
Format: functional, cell-based.

In test [2] the target is T3, Cholecystokinin receptor type A (Homo sapiens, UniProt P32238).
T3 sequence (P32238 whole entry): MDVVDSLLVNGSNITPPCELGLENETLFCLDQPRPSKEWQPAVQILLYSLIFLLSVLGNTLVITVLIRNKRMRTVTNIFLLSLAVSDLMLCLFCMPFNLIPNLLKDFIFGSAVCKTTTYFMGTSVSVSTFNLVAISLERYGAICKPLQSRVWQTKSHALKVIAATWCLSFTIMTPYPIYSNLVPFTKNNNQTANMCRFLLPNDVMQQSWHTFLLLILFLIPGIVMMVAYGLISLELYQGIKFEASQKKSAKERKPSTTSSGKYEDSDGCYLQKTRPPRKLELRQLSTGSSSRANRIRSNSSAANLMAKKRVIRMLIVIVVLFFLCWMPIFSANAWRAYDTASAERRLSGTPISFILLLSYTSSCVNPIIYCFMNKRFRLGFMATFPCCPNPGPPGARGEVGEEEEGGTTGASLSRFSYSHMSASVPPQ

In test [3] the target is Growth hormone secretagogue receptor type 1 (Homo sapiens, UniProt Q92847).
The target of test [4] is 5-hydroxytryptamine receptor 2B (Homo sapiens, UniProt P41595). It is filed as functional, cell-based.
In another test the target is Motilin receptor (Homo sapiens, UniProt O43193).
The target in test [5] is T4, Prostaglandin G/H synthase 1 (Rattus norvegicus, UniProt Q63921).
T4 sequence (Q63921 whole entry): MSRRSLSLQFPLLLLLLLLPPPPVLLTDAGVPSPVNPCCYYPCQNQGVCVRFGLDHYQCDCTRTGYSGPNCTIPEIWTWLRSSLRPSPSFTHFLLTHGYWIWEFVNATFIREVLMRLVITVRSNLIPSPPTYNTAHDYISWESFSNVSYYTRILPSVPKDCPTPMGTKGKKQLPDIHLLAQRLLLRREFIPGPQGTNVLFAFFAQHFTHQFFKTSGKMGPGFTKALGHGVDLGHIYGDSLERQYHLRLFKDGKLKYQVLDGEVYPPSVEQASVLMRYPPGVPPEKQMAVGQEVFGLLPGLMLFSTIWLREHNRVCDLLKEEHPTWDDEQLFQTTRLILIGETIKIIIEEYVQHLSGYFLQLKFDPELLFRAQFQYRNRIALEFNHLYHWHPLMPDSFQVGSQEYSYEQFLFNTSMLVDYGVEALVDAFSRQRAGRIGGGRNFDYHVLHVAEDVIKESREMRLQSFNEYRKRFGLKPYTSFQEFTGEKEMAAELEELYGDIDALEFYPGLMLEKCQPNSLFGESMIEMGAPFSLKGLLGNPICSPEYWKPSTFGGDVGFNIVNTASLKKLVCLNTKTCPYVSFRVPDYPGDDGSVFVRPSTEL
Format: functional.

Test [6] has as its target T5, Amine oxidase [flavin-containing] A (Homo sapiens, UniProt P21397).
T5 sequence (P21397 whole entry): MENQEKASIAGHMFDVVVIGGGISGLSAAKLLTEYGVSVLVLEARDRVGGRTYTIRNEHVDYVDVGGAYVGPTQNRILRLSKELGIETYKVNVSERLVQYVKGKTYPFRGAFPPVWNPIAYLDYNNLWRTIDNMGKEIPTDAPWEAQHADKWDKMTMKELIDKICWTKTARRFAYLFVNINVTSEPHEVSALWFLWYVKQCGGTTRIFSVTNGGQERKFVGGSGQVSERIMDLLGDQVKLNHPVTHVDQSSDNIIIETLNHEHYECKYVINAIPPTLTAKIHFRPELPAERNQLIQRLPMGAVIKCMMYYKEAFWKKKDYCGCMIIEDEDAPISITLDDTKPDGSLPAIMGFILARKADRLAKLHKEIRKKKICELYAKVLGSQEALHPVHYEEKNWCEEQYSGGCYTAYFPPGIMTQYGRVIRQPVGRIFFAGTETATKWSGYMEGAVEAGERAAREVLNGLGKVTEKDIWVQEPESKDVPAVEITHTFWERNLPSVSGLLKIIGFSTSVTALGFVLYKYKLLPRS
Format: functional.

In test [7] the target is cGMP-inhibited 3',5'-cyclic phosphodiesterase 3A (Homo sapiens, UniProt Q14432). Format: functional.
Another test deals with D(3) dopamine receptor (Homo sapiens, UniProt P35462).

Some results are limits rather than exact numbers.
Further: assay procedure not described here.

Sequence of Motilin receptor (O43193 whole entry): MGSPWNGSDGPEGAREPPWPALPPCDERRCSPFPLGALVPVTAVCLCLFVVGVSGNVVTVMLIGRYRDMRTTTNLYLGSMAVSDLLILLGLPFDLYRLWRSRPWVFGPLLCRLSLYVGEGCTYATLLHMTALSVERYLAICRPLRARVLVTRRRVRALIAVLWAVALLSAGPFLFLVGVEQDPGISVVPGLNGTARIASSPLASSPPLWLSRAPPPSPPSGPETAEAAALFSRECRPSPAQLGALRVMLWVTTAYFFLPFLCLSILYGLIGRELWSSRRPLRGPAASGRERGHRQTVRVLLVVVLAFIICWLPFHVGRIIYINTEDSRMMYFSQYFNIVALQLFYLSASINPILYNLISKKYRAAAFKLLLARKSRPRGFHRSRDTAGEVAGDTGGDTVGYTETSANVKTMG
Sequence of Growth hormone secretagogue receptor type 1 (Q92847 whole entry): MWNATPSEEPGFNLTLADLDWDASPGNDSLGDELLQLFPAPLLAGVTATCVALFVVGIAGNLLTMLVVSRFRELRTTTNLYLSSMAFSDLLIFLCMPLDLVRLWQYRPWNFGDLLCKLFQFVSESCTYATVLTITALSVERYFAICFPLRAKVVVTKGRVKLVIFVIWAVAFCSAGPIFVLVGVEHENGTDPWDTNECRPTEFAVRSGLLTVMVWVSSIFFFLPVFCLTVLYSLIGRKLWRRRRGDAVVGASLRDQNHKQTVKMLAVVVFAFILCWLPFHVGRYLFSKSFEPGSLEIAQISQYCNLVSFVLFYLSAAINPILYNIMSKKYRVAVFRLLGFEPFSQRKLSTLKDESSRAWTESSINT
Sequence of cGMP-inhibited 3',5'-cyclic phosphodiesterase 3A (Q14432 whole entry): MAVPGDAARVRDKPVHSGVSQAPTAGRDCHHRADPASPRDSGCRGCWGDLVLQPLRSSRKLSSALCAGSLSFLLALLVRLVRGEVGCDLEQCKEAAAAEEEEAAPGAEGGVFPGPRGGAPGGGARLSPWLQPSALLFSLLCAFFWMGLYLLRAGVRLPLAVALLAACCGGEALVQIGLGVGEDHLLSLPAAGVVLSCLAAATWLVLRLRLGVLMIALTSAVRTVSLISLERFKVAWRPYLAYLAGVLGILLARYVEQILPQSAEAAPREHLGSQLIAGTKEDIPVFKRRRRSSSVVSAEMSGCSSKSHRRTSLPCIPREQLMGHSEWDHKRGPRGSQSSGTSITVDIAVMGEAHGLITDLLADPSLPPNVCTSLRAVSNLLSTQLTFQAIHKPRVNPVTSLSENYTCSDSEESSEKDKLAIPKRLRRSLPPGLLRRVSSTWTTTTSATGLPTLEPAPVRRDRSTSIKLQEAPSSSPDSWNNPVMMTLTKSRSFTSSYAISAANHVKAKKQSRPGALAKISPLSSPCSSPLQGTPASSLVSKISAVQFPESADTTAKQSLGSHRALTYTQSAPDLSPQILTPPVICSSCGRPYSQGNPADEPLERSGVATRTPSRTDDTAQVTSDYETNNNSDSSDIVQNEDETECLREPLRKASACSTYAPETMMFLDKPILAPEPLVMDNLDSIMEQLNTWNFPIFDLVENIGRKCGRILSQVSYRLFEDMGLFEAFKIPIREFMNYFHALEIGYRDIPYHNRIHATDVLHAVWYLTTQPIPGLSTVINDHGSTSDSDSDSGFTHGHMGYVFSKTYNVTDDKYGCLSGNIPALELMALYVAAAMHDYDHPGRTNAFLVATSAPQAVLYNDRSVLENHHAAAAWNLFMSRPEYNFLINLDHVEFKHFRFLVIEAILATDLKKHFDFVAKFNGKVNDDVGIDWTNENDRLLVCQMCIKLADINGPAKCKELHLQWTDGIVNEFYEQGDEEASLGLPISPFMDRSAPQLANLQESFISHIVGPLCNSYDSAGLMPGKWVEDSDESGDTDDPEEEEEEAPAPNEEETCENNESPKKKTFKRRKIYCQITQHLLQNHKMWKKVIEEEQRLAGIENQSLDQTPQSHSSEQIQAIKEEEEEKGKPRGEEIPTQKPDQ
Sequence of D(3) dopamine receptor (P35462 whole entry): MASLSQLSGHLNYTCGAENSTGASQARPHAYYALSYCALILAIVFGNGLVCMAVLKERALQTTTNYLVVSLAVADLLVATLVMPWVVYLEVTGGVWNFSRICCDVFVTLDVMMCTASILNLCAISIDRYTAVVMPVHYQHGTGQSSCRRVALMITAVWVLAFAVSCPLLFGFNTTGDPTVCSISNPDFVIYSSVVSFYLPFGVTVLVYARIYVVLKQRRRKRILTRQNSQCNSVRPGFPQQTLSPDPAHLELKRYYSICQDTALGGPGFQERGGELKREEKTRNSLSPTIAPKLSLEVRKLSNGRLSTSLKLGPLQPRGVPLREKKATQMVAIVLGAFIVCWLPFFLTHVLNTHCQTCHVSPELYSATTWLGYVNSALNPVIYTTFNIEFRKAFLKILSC
Sequence of 5-hydroxytryptamine receptor 2B (P41595 whole entry): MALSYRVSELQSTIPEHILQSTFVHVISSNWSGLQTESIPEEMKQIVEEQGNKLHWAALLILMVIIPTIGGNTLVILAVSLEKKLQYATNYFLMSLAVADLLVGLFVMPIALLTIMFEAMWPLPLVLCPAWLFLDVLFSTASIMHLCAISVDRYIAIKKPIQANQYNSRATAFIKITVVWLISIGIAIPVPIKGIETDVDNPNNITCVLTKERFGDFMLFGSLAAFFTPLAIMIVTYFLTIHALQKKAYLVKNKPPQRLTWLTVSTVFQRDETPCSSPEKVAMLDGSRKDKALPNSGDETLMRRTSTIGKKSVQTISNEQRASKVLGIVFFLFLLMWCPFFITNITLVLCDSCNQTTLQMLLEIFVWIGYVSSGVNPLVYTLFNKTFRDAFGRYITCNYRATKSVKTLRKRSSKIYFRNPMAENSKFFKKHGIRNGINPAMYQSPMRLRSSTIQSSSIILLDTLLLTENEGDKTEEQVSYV

What is called AC50 is the concentration at which the activity in the assay is half-maximal. Lower therefore signals activity at low concentration. On to `CCOCC(O)COc1ccc(NC(=O)CC[S+](C)C)cc1` (stereo not given), for which the AC50 (at Adenosine receptor A3; in test [1]; in test [2]; in test [3]; in test [4]; on Motilin receptor) was over 30 µM in each case. The concentration at half-maximal activity (AC50) (in test [5]; in test [6]; in test [7]; at D(3) dopamine receptor) was over 30 µM throughout.
With `O=C(O)COC(=O)Cc1ccccc1Nc1c(Cl)cccc1Cl` [ACECLOFENAC], the concentration at half-maximal activity (AC50) at Adenosine receptor A3 was over 30 µM; in test [1] it was over 10 µM; in test [2], over 30 µM; in [3] it was over 30 µM; in [4] it was over 10 µM; at Motilin receptor, over 10 µM. The half-maximal activity concentration (AC50) in [5] was over 30 µM; in test [6], over 10 µM; in [7], over 30 µM; at D(3) dopamine receptor it was over 30 µM.
With `CN(C)CCc1c[nH]c2ccc(CS(=O)(=O)N3CCCC3)cc12` [ALMOTRIPTAN], the half-maximal activity concentration (AC50) is over 30 µM at Adenosine receptor A3; over 30 µM in [1]; over 30 µM in test [2]; over 30 µM in test [3]; 11 µM in test [4]; over 30 µM at Motilin receptor. The concentration at half-maximal activity (AC50) (in test [5]; in test [6]; in test [7]; on D(3) dopamine receptor) was over 30 µM throughout.
Consider `CC[N+](CC)(CCNC(=O)C(=O)NCC[N+](CC)(CC)Cc1ccccc1Cl)Cc1ccccc1Cl` [AMBENONIUM], for which the AC50 (on Adenosine receptor A3; in [1]; in [2]; in test [3]; in test [4]; at Motilin receptor) was over 30 µM in each case. For the same molecule, the half-maximal activity concentration (AC50) (in [5]; in [6]; in [7]; on D(3) dopamine receptor) was over 30 µM in each case.
As to `NCCCNCCSP(=O)(O)O` [AMIFOSTINE], the half-maximal activity concentration (AC50) (at Adenosine receptor A3; in test [1]; in test [2]; in [3]; in test [4]; at Motilin receptor) was over 30 µM each time. Also, the AC50 (in [5]; in test [6]; in test [7]; on D(3) dopamine receptor) was over 30 µM in each case.
As to `NCCCCCC(=O)O` [AMINOCAPROIC ACID], the AC50 (on Adenosine receptor A3; in [1]; in test [2]; in test [3]; in test [4]; at Motilin receptor) was over 10 µM each time. For the same molecule, the concentration at half-maximal activity (AC50) in test [5] was over 10 µM; in test [6], over 10 µM; in test [7] it was over 30 µM; on D(3) dopamine receptor it was over 30 µM.
`CN1CC2c3ccccc3Oc3ccc(Cl)cc3C2C1` (stereo not given) [ASENAPINE]: the concentration at half-maximal activity (AC50) on Adenosine receptor A3 was over 30 µM; in test [1], 0.079 µM; in test [2], over 30 µM; in [3] it was 24 µM; in [4], over 30 µM; on Motilin receptor, over 30 µM. In addition, the AC50 in test [5] was over 30 µM; in [6], over 30 µM; in test [7], over 30 µM; at D(3) dopamine receptor, 0.0044 µM.
In the case of `Cn1cnc2c(F)c(Nc3ccc(Br)cc3F)c(C(=O)NOCCO)cc21` [BINIMETINIB], the concentration at half-maximal activity (AC50) (at Adenosine receptor A3; in test [1]; in test [2]; in test [3]; in [4]; at Motilin receptor) was over 30 µM each time. Moreover, the AC50 (in test [5]; in test [6]; in test [7]; on D(3) dopamine receptor) was over 30 µM in each case.
On to `CC(C)C[C@H](NC(=O)[C@H](Cc1ccccc1)NC(=O)c1cnccn1)B(O)O` [BORTEZOMIB], for which the half-maximal activity concentration (AC50) (at Adenosine receptor A3; in [1]; in test [2]; in test [3]; in [4]; at Motilin receptor) was over 30 µM in each case. In addition, the AC50 (in test [5]; in [6]; in test [7]; on D(3) dopamine receptor) was over 30 µM each time.
As for `C[C@H](CS)C(=O)N1CCC[C@H]1C(=O)O` [CAPTOPRIL], the AC50 on Adenosine receptor A3 was over 30 µM; in [1] it was over 10 µM; in [2], over 30 µM; in test [3], over 30 µM; in [4], over 10 µM; at Motilin receptor, over 10 µM. Further, the AC50 in test [5] is over 30 µM; in test [6], over 10 µM; in test [7] it was over 30 µM; at D(3) dopamine receptor, over 30 µM.
`CN(C)CCOC(c1ccc(Cl)cc1)c1ccccn1` (stereo not given) [CARBINOXAMINE]: the half-maximal activity concentration (AC50) (on Adenosine receptor A3; in test [1]; in [2]; in [3]; in test [4]; at Motilin receptor) was over 30 µM in each case. Also, the AC50 (in test [5]; in test [6]; in test [7]; on D(3) dopamine receptor) was over 30 µM each time.
With `CCN(CC)CCn1c(=O)c(Cc2ccc(OC)cc2)nc2ccccc21` [CAROVERINE], the concentration at half-maximal activity (AC50) was 27 µM at Adenosine receptor A3; over 30 µM in [1]; over 30 µM in test [2]; 6.47 µM in [3]; over 30 µM in test [4]; 16.8 µM on Motilin receptor. Moreover, the half-maximal activity concentration (AC50) in test [5] is 15.8 µM; in [6], over 30 µM; in test [7], over 30 µM; at D(3) dopamine receptor, 7.34 µM.
Turning to `C[C@H](CCC(=O)O)[C@H]1CC[C@H]2[C@@H]3[C@H](O)C[C@@H]4C[C@H](O)CC[C@]4(C)[C@H]3CC[C@]12C` [CHENODIOL], the half-maximal activity concentration (AC50) is over 30 µM on Adenosine receptor A3; 3 µM in test [1]; over 30 µM in test [2]; over 30 µM in test [3]; over 30 µM in [4]; over 30 µM on Motilin receptor. Further, the half-maximal activity concentration (AC50) (in [5]; in test [6]; in test [7]; at D(3) dopamine receptor) was over 30 µM throughout.
